# Results published in patent publication US8338423B2, “Compositions for the treatment of hyperphenylalaninemia” (Universidad de Zaragoza, priority 2007, dated 2012).
# Molecular target: T1, PAH103-428 (catalytic domain) (Homo sapiens, UniProt P00439)
# T1 construct: made in house; host or cells: E. coli
# T1 sequence (P00439 103-428): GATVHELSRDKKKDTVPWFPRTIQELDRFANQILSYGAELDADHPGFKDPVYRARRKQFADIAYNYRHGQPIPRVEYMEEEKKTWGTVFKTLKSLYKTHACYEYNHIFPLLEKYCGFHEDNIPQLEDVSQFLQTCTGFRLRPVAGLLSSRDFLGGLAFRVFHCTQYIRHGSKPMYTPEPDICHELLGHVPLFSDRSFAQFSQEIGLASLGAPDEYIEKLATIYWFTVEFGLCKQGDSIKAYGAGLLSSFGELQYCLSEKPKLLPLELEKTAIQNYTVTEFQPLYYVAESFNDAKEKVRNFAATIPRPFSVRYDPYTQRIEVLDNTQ
# Experiment: ANS-monitored thermal unfolding of PAH103-428
# Type: binding
# Conditions: 100 μM compound, vs no ligand
# Experimental: (§1) HTS for ligand-induced PAH stabilization was performed by monitoring the thermal denaturation of recombinant pure PAH protein in the presence of the extrinsic fluorescent probe 8-anilino 1-naphtalene sulfonic acid (ANS; Aldrich). HTS experiments were performed in a FluoDia T70 High Temperature Fluorescence Microplate Reader (Photon Technology International). Protein-ligand solutions (200 uL) were dispensed into 96-well microplates (ThermoFast®96 Skirted from Abgene) and overlayed with mineral oil. Protein solutions contained 0.1 mg/ml PAH (2 μM in PAH subunit) in 20 mM Hepes 200 mM NaCl pH 7.0 and 100 μM ANS. Ligands were added in DMSO, at 100 μM and 2.5% final concentration, respectively. Control experiments in the absence of DMSO and/or ligands were routinely performed in each microplate. Ligands (from MayBridge HitFinder™ Collection Database) were manually added to the microplates containing the protein solutions and incubated at 25° C. for 30 min before loading them onto the microplate reader. Thermal denaturation was monitored by following the increase in ANS fluorescence intensity due to protein unfolding λexc=395 and λern=500 nm; filters (Matulis D, et. Al., Biochemistry 2005, 44(13):5258-66). Fluorescence was registered in the 25-75° C. range, at a 1° C./min scan rate and allowing the system to equilibrate at each temperature for 1 min before fluorescence acquisition The experiments were real-time monitored using the software provided by the manufacturer. After smoothing and normalization of the experimental data, ligand induced stabilization was screened by estimation of the T0.5 as midpoint temperature of the transition defined as the temperature where half of the unfolded fluorescence signal (fu) is experimentally observed, using a home-built software written in C++ and the following expression (equation 1): […]
# (§2) Additional thermal denaturation experiments were performed on a Cary Eclipse fluorescence spectrophotometer equipped with a temperature controlled Peltier multicell holder (Varian). Samples containing PAH (2 μM subunit) in 20 mM NaHepes, 200 mM NaCl, pH 7.0, 100 μM ANS, 2.5% DMSO and 0-100 μM ligands were incubated at room temperature for 30 min to allow equilibration prior to measurements. Thermal denaturation was monitored by following changes in ANS fluorescence emission (excitation at 395 and emission at 500 nm; slits 10 nm) at a 1 K/min in a 20-80° C. range. Each run contained 4 different samples, including a control in the absence of ligand. Data analysis was performed by fitting of the experimental fluorescence to equation 1.
# (§3) Similar ligand-induced stabilization experiments were performed using i) a double truncated form of PAH equivalent to the catalytic domain (PAH103-428) lacking both the regulatory N-terminal domain and the tetramerization motif and existing as a functional dimmer and ii) the R68S-PAH mutant, associated to mild PKU and one of the few PKU mutants that display enough stability to be purified as a stable tetramer.
row,SMILES,ΔT0.5 PAH103-428 [°C]
1,"Cc1ccnc(-n2c(=S)[nH]c3sc(C)c(C)c3c2=O)c1 [Compound 13, 5,6-dimethyl-3-(4-methyl-2-pyridinyl)-2-thioxo-2,3 dihydrothieno[2,3-d]pyrimidin-4(1H)-one]",1.2
2,"Cc1onc(-c2ccccc2)c1-c1n[nH]c(N)c1C#N [Compound 5, 5-amino-3-(5-methyl-3-phenyl-4-isoxazolyl)-1H-pyrazole-4-carbonitrile]",4.3
3,"Cn1cnc([N+](=O)[O-])c1N1CCN(C(c2ccccc2)c2ccccc2)CC1 [Compound 6, 1-benzhydryl-4-(1-methyl-4-nitro-1H-imidazol-5-yl)piperazine]",8.4
4,"Nc1c(-c2ccc3ccccc3n2)c2ccc([N+](=O)[O-])cc2c(=O)n1Cc1ccccc1 [Compound 11, 3-amino-2-benzyl-7-nitro-4-(2-quinolyl)-1,2-dihydroisoquinolin-1-one]",10.1

# Same assay, conditions: 100 μM compound; mean ± SD
row,SMILES,T0.5 PAH103-428 [°C]
1,"Cc1ccnc(-n2c(=S)[nH]c3sc(C)c(C)c3c2=O)c1 [Compound 13, 5,6-dimethyl-3-(4-methyl-2-pyridinyl)-2-thioxo-2,3 dihydrothieno[2,3-d]pyrimidin-4(1H)-one]",46.1 ± 0.7
2,"Cc1onc(-c2ccccc2)c1-c1n[nH]c(N)c1C#N [Compound 5, 5-amino-3-(5-methyl-3-phenyl-4-isoxazolyl)-1H-pyrazole-4-carbonitrile]",49.2 ± 1.2
3,"Cn1cnc([N+](=O)[O-])c1N1CCN(C(c2ccccc2)c2ccccc2)CC1 [Compound 6, 1-benzhydryl-4-(1-methyl-4-nitro-1H-imidazol-5-yl)piperazine]",53.3 ± 1.5
4,"Nc1c(-c2ccc3ccccc3n2)c2ccc([N+](=O)[O-])cc2c(=O)n1Cc1ccccc1 [Compound 11, 3-amino-2-benzyl-7-nitro-4-(2-quinolyl)-1,2-dihydroisoquinolin-1-one]",55.0 ± 1.3

# Same assay, conditions: 100 μM ligand
row,SMILES,stabilization of PAH103-428
1,"Cc1ccnc(-n2c(=S)[nH]c3sc(C)c(C)c3c2=O)c1 [Compound 13, 5,6-dimethyl-3-(4-methyl-2-pyridinyl)-2-thioxo-2,3 dihydrothieno[2,3-d]pyrimidin-4(1H)-one]",only a slight stabilized
2,"Cn1cnc([N+](=O)[O-])c1N1CCN(C(c2ccccc2)c2ccccc2)CC1 [Compound 6, 1-benzhydryl-4-(1-methyl-4-nitro-1H-imidazol-5-yl)piperazine]",significantly stabilized
3,"Nc1c(-c2ccc3ccccc3n2)c2ccc([N+](=O)[O-])cc2c(=O)n1Cc1ccccc1 [Compound 11, 3-amino-2-benzyl-7-nitro-4-(2-quinolyl)-1,2-dihydroisoquinolin-1-one]",significantly stabilized

# Molecular target: T2, R68S-PAH (Homo sapiens, UniProt P00439, R68S)
# T2 construct: made in house; host or cells: E. coli
# T2 sequence (P00439 1-452 R68S): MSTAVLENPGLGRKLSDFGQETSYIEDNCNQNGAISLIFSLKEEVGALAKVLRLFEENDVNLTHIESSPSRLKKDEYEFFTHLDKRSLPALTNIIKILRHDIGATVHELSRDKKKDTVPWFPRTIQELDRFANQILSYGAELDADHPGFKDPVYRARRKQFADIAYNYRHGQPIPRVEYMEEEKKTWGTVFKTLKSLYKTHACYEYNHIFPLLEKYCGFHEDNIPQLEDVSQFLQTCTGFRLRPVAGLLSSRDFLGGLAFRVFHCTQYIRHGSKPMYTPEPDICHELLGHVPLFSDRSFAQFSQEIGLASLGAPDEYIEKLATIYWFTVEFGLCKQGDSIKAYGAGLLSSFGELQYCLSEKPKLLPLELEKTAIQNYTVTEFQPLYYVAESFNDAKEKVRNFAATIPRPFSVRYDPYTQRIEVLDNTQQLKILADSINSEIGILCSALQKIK
# Experiment: ANS-monitored thermal unfolding of R68S-PAH
# Type: binding
# Conditions: 100 μM compound, vs no ligand
# Experimental: as §1, §2, §3
row,SMILES,ΔT0.5 PAHR68S [°C]
1,"Cc1ccnc(-n2c(=S)[nH]c3sc(C)c(C)c3c2=O)c1 [Compound 13, 5,6-dimethyl-3-(4-methyl-2-pyridinyl)-2-thioxo-2,3 dihydrothieno[2,3-d]pyrimidin-4(1H)-one]",1.6
2,"Cc1onc(-c2ccccc2)c1-c1n[nH]c(N)c1C#N [Compound 5, 5-amino-3-(5-methyl-3-phenyl-4-isoxazolyl)-1H-pyrazole-4-carbonitrile]",1.1
3,"Cn1cnc([N+](=O)[O-])c1N1CCN(C(c2ccccc2)c2ccccc2)CC1 [Compound 6, 1-benzhydryl-4-(1-methyl-4-nitro-1H-imidazol-5-yl)piperazine]",3.2
4,"Nc1c(-c2ccc3ccccc3n2)c2ccc([N+](=O)[O-])cc2c(=O)n1Cc1ccccc1 [Compound 11, 3-amino-2-benzyl-7-nitro-4-(2-quinolyl)-1,2-dihydroisoquinolin-1-one]",8.2

# Same assay, conditions: 100 μM compound; mean ± SD
row,SMILES,T0.5 PAHR68S [°C]
1,"Cc1ccnc(-n2c(=S)[nH]c3sc(C)c(C)c3c2=O)c1 [Compound 13, 5,6-dimethyl-3-(4-methyl-2-pyridinyl)-2-thioxo-2,3 dihydrothieno[2,3-d]pyrimidin-4(1H)-one]",50.5 ± 0.5
2,"Cc1onc(-c2ccccc2)c1-c1n[nH]c(N)c1C#N [Compound 5, 5-amino-3-(5-methyl-3-phenyl-4-isoxazolyl)-1H-pyrazole-4-carbonitrile]",50.0 ± 1.4
3,"Cn1cnc([N+](=O)[O-])c1N1CCN(C(c2ccccc2)c2ccccc2)CC1 [Compound 6, 1-benzhydryl-4-(1-methyl-4-nitro-1H-imidazol-5-yl)piperazine]",52.1 ± 1.6
4,"Nc1c(-c2ccc3ccccc3n2)c2ccc([N+](=O)[O-])cc2c(=O)n1Cc1ccccc1 [Compound 11, 3-amino-2-benzyl-7-nitro-4-(2-quinolyl)-1,2-dihydroisoquinolin-1-one]",57.1 ± 0.3

# Same assay, conditions: 100 μM ligand
row,SMILES,stabilization of R68S-PAH
1,"Cc1ccnc(-n2c(=S)[nH]c3sc(C)c(C)c3c2=O)c1 [Compound 13, 5,6-dimethyl-3-(4-methyl-2-pyridinyl)-2-thioxo-2,3 dihydrothieno[2,3-d]pyrimidin-4(1H)-one]",only a slight stabilized
2,"Cn1cnc([N+](=O)[O-])c1N1CCN(C(c2ccccc2)c2ccccc2)CC1 [Compound 6, 1-benzhydryl-4-(1-methyl-4-nitro-1H-imidazol-5-yl)piperazine]",significantly stabilized
3,"Nc1c(-c2ccc3ccccc3n2)c2ccc([N+](=O)[O-])cc2c(=O)n1Cc1ccccc1 [Compound 11, 3-amino-2-benzyl-7-nitro-4-(2-quinolyl)-1,2-dihydroisoquinolin-1-one]",significantly stabilized
